“Also recorded” adds a separate entry of the source.
Assays:
MK801-treated mice [1] = assay: Open field task, MK801-induced hyper-locomotion; format: in vivo; conditions: Example 1 446 or 892 mg/kg orally 20 min prior to MK801 0.1 mg/kg i.p.; 120 minutes testing period
Procedure: (§1) The mice were placed in a Plexiglas cage (37.5 cm×21.5 cm×18 cm) under 50-65 lux light intensity, the spontaneous locomotion was measured for 120 minutes using the EthoVision video tracking system (Noldus Information Technology, the Netherlands). The travel distance of each mouse was measured as an index of spontaneous locomotion.
(§2) The mice were group housed (3-5 mice per cage) with food and water available ad libitum in polysulfone ventilated cages (Alternative Design, AR, USA) in the animal rooms of the SyneuRx International (Taiwan) Corp. The colony was maintained on a 12/12-hr light/dark cycle at the temperature of 22±2° C. and all behavioral studies were performed during dark cycle. All animals used in this study were adult mice (at least 2.5 months of age). All animal procedures were performed according to the protocols approved by the Institutional Animal Care and Use Committee (IACUC). […]
(§3) All mice in the experiments were tested by open field task and pre-pulse inhibition with at least 1-week interval between two tasks. […] The percentage of pre-pulse inhibition was calculated by the following formula: % PPI=100×[(PA score)−(pp-P score)]/(PA score), where the PA score was the average of the PA value in the middle blocks. […]

hDAAO (human DAAO) = hDAAO (human DAAO) (Homo sapiens (Human), UniProt P14920); assay: hDAAO (human DAAO) activity, D-serine substrate, Amplex Red fluorescence; format: biochemical
Procedure: The hDAAO (human DAAO) activity was measured by using D-serine as a substrate to produce H2O2. The produced H2O2 would be oxidized by peroxidase, and the produced free radicals would further react with Amplex Red reagent to emit fluorescence. The intensity of fluorescence at 590 nm would be measured to represent the activity of hDAAO. All compounds were dissolved in DMSO. Each compound was diluted with DMSO in 3-fold serial dilution to create a 9-point dose response curve. Each sample was added in triplicate, 1 μL/well, into 96-well black plates. Positive control wells were added with 1 μL of DMSO. Then 49 μL of assay buffer (100 mM Tris-HCl, pH 8.5) containing 1.2 ng/mL hDAAO, 900 nM FAD, 0.2 units/mL HRP, and 100 μM Amplex Red was added to each well of the plate using a multichannel pipette. Next, 50 μL of 100 mM D-Serine in assay buffer was added. The reaction plates were then incubated in the dark at room temperature. The fluorescence readout was detected at 0 and 20 minute by Molecular Device Gemini EM fluorescence reader using the following settings: excitation filter 530 nm, and emission filter 590 nm. The percentage of inhibition values for each well was calculated with the following equation: The percentage of inhibition=(fluorescencesample, 20 min−fluorescencesample, 0 min)/(fluorescenceDMSO, 20 min−fluorescenceDMSO, 0 min)×100%
(§4) The nonlinear curve fitting model in GraphPad Prism 5 was used to calculate IC50 value for each compound.

MK801-treated mice [2] = assay: Pre-pulse inhibition (PPI) test, MK801-induced deficit of sensorimotor gating; format: in vivo; conditions: Example 1 446 or 892 mg/kg orally 20 min prior to MK801 0.2 mg/kg i.p.; each pre-pulse intensity
Procedure: as §2, with “(IACUC). The mice were randomly assigned into four groups, Group 1: vehicle control, Group 2: MK801, Group 3: Example 1 at 446 mg/kg+MK801, Group 4: Example 1 at 892 mg/kg+MK801.” for “(IACUC).”
as §3

mice = assay: Spontaneous locomotion in open field; format: in vivo; conditions: oral, 446 and 892 mg/kg, 120 minutes observation
Procedure: The mice were group housed (3-5 mice per cage) with food and water available ad libitum in polysulfone ventilated cages (Alternative Design, AR, USA) in the animal rooms of SyneuRx International (Taiwan) Corp. The colony was maintained on a 12/12-hr light/dark cycle at the temperature of 22±2° C. and all behavioral studies were performed during the dark cycle. All animals used in this study were adult mice (at least 2.5 months of age). All animal procedures were performed according to the protocols approved by Institutional Animal Care and Use Committee (IACUC).
The compound of Example 1 was placed into 100% PEG400, and was sonic vibrated until solution became clear. […]
Mice that received oral administration of either vehicle or low/high dose of the compound of Example 1 was immediately subjected to open field test and the index of spontaneous locomotion was expressed as total travel distance measured within the defined time frame.
as §1

[3] = biological target: pkDAAO (porcine kidney DAAO) (Sus scrofa (Pig), UniProt P00371); assay: pkDAAO (porcine kidney DAAO) activity, D-Proline substrate, OPD OD450; format: biochemical
Procedure: The pkDAAO (porcine kidney DAAO) activity was measured by using D-Proine as a substrate to produce hydrogen peroxide (H2O2). The produced H2O2 would be oxidized by peroxidase, and the produced free radicals would further react with 1,2-Phenylenediamine (OPD) reagent. […] The OD450 would be measured to represent the activity of pkDAAO. All compounds were dissolved in DMSO. Each compound was diluted with DMSO in 3 or 4-fold serial dilution to create a 9-point dose response curve. Each sample was added in triplicate, 10 μL/well, into 96-well assay microplate. Positive control wells were added with 10 μL of DMSO. The diluted compounds were incubated with pkDAAO in dark for 10 minutes and then reacted with D-Proline. The final reaction mixture was composed of 0.01 U/mL pkDAAO, 0.03% OPD, 25 U/mL HRP and 40 mM D-Proline in PBS. The reaction plates were then incubated in the dark at room temperature. The OD450 absorbance readout was detected at 0 and 20 minute by Molecular Device Spectra Max Plus reader. The percentage of inhibition values for each well were calculated with the following equation: The percentage of inhibition=(OD450sample, 20 min−OD450sample, 0 min)/(OD450DMSO, 20 min−OD450DMSO, 0 min)×100%
as §4

hDAAO (human DAAO), sequence (P14920 whole entry): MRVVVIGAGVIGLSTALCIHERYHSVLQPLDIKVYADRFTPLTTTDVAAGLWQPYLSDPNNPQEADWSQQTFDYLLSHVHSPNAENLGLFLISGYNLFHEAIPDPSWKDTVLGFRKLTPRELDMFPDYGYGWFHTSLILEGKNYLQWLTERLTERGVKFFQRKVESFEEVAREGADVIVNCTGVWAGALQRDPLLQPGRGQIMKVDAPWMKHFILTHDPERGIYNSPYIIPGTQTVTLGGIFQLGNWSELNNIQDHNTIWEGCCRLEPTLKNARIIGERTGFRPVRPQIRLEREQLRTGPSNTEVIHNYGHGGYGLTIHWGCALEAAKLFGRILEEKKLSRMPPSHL
pkDAAO (porcine kidney DAAO), sequence (P00371 whole entry): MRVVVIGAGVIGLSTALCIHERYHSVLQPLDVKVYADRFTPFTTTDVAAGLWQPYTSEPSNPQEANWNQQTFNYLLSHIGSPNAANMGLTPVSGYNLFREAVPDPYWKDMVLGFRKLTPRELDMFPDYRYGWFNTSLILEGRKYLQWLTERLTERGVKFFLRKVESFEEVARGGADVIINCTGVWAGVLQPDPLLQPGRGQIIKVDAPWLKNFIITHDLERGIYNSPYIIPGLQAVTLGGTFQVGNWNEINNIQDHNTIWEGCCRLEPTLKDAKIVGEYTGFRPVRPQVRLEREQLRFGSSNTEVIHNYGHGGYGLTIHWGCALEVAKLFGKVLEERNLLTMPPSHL

SMILES	locomotion activity in open field task compared to control group (MK801-treated mice [1])	IC50 (hDAAO (human DAAO)) [nM]	percentage of pre-pulse inhibition compared to control group (MK801-treated mice [2])	spontaneous locomotion (total travel distance) versus vehicle (mice)	IC50 [3] [nM]
O=C(Oc1coc(CO)cc1=O)c1ccc[nH]1 [Compound 1, 6-(hydroxymethyl)-4-oxo-4H-pyran-3-yl 1H-pyrrole-2-carboxylate]	equal level of locomotion activity as mice in the control group; also recorded: reversed/protected MK801-induced hyper-locomotion activity	100000 to 500000	the same level of pre-pulse inhibition percentage; also recorded: rescued/protected the MK801-induced PPI deficits	no significant difference between groups	–
C[C@]12N[C@H](Cc3ccccc31)c1ccccc12 [MK801, reference compound]	displayed hyper-locomotion	–	lower percentage of pre-pulse inhibition	–	–
O=C(Oc1cc(CCc2cc(F)cc(F)c2)n[nH]c1=O)c1cc(CCc2ccc(Cl)cc2)c[nH]1 [Compound 56, 6-(3,5-difluorophenethyl)-3-oxo-2,3-dihydropyridazin-4-yl 4-(4-chlorophenethyl)-1H-pyrrole-2-carboxylate]	–	1000 to 10000	–	–	10000 to 100000
O=C(Oc1cc2c(Cl)cccc2[nH]c1=O)c1cc(CCc2ccccc2)c[nH]1 [Compound 23, 5-chloro-2-oxo-1,2-dihydroquinolin-3-yl 4-phenethyl-1H-pyrrole-2-carboxylate]	–	100 to 1000	–	–	1000 to 10000
O=C(Oc1cc(CCc2cccc3ccccc23)n[nH]c1=O)c1cc(CCc2ccc(Cl)cc2)n[nH]1	–	100 to 500	–	–	10 to 100

— US10336724B2, “D-amino acid oxidase inhibitors and therapeutic uses thereof” (SyneuRx International (Taiwan) Corp., priority 2017, dated 2019)
